Data as given in patent US11339203B2, “Antitumor peptide and use thereof” (TOAGOSEI CO., LTD., priority 2018, dated 2022).
Where two headings read alike, the source gives them in different places. Where no end group is shown, it is not given here.

Key:
[1] = tested on: human prostate cancer cell line (PC-3); format: cell-based; conditions: 48 h
Procedure: (§1) CAKI2 cells were cultured and adjusted to cell count of about 5×10^3 cells per single well of 96-well plate. The amount of medium at this time was made to be 100 μL per well. Next, the 96-well plate was arranged in a CO2 incubator and incubated for about 1 day (21 hours to 24 hours) under conditions of 37° C. and 5% CO2. […] Cell viability (%) was determined in the manner described below. […] Following completion of incubation, cell viability (%) was evaluated using a colorimetric method consisting of recovering the cell culture liquid containing the above-mentioned reagent together with measuring absorbance at wavelength of 450 nm based on reduction of tetrazolium salt (value corrected for absorbance at a wavelength of 650 nm: A450 to A650). More specifically, the cell viability (%) of each test cell line was calculated from the measured absorbance as a relative value based on cell viability of 100% for the measured value (measured absorbance) of the comparison test group that underwent incubation for 48 hours as described above in only medium not containing peptide. Antitumor activity was evaluated for Sample 2 in above-mentioned Test Example 1 targeted at multiple types of human-derived cultured tumor cells. […]

[2] = tested on: human melanoma cell line (A2058); format: cell-based; conditions: 48 h
Procedure: as §1

## FIGNLALSDLLAGVAYTANLLLKKRTLRKNDRKKR-NH2 [Sample 2]
[1]; 12.5 μM
  Cell Viability (%): 25.6%
[1]; 25 μM
  Cell Viability (%): 2.5%
[2]; 12.5 μM
  Cell Viability (%): 6.5%
[2]; 25 μM
  Cell Viability (%): 0.2%
